Data: article PMC12123458, “Unraveling Small Molecule-Mediated Sirtuin 3 Activation at a Distinct Binding Site for Cardioprotective Therapies” (ACS Central Science, 2025)

Legend:
SIRT1 = biological target: T1, SIRT1 (Homo sapiens, UniProt Q96EB6); test: SPR binding to SIRT1
T1 sequence (Q96EB6 1-747): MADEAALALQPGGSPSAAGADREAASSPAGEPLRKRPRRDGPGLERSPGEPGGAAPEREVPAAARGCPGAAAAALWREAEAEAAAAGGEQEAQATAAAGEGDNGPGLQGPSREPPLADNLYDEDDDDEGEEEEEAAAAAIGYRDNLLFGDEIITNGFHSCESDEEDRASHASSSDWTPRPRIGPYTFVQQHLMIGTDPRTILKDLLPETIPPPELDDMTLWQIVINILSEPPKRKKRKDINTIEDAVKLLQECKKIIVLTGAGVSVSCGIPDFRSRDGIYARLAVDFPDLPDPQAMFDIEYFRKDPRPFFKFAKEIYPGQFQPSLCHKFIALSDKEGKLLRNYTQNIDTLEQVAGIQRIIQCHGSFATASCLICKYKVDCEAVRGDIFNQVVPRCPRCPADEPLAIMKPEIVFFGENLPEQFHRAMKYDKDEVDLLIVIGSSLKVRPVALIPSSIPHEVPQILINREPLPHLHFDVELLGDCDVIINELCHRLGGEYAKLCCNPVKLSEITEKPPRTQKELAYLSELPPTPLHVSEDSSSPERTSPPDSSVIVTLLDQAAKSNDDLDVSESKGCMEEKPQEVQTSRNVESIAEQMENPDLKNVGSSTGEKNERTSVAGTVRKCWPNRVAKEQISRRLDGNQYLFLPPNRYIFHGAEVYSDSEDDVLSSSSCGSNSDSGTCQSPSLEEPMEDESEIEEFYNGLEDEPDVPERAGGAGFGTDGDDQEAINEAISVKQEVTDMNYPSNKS
Experimental: (§1) The affinity of SKLB-11A for SIRT1, SIRT2, SIRT3, SIRT5, and SIRT6 was determined using a Reichert 4SPR system (Reichert Technologies, Depew, NY, USA). Proteins at 200 μg/mL were immobilized on a dextran-coated sensor chip (13206066) until reaching ≥12,000 response units (RUs). A dual-flow channel setup was used, reserving one channel for blank controls. SKLB-11A was introduced at varying concentrations for binding and subsequent dissociation kinetic analysis. Data acquisition was at 25 °C utilizing a PBST running buffer (pH 7.4). The equilibrium dissociation constant (K d) was computed from steady-state affinity measurements using TraceDrawer software.

wild-type SIRT3 = biological target: T2, wild-type SIRT3 (Homo sapiens, UniProt Q9NTG7); test: BLI binding of SKLB-11A to wild-type SIRT3; settings: read-out: dissociation constant, wild-type SIRT3
T2 sequence (Q9NTG7 1-399): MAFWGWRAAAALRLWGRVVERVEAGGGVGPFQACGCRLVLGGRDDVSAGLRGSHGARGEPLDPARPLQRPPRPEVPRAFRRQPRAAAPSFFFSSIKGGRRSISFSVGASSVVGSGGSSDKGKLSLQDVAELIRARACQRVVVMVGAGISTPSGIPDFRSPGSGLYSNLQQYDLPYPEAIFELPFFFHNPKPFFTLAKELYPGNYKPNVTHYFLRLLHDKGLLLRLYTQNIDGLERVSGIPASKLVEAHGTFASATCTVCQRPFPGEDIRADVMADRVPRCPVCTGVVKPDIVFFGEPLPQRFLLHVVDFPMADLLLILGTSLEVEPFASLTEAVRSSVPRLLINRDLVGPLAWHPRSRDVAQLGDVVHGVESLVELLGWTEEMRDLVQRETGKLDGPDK
Experimental: Binding kinetics of SIRT3 with various compounds were quantified using SSA biosensors on an Octet Red96 system (ForteBio). The assays occurred in 96-well plates, recording wavelength shifts in real-time. Ambient temperature was maintained at 25 °C, with plate agitation at 1000 rpm, and a reaction volume of 200 μL per well. SIRT3 protein and test compounds were prepared in phosphate-buffered saline (PBS, pH 7.4). Biosensors were equilibrated in PBS for 10 min before immobilizing SIRT3 (0.9 μg/mL) for 180 s, followed by a 120-s PBS wash. […] Data analysis was performed using ForteBio’s Octet RED software.

SIRT3 = biological target: T3, SIRT3 (Homo sapiens, UniProt Q9NTG7); test: Fluor de Lys (FDL) fluorimetric SIRT3 deacetylase activity assay; type: biochemical
T3 construct: purchased Enzo Life Sciences BML-AK557-0001
T3 sequence (Q9NTG7 1-399): T2 sequence (Q9NTG7 1-399)
Experimental: The SIRT3 activity was assessed using the Enzo Life Sciences kit (BML-AK557-0001) per the protocol provided. A 10 μM fluoro-acetylated p53 peptide and 500 μM NAD^+ were added to SIRT3 assay buffer, incubated with test compounds and 0.5 μg recombinant SIRT3 at 37 °C for 30 min. In the mass spectrometry (MS) assay, 5 μM hSirt3 was reacted with 0.25 mM peptide and 1.25 mM NAD^+, with or without 10 μM SKLB-11A in 2% DMSO, at 37 °C. Controls included 2% DMSO without SKLB-11A. The reaction was halted at defined intervals using 5 mM nicotinamide, and the mixture then underwent filtration and subjected to nano LC-MS/MS analysis. Acetylated Peptide: MnSOD-K122 ([…]-Ac).

SIRT6 = SIRT6 (Homo sapiens, UniProt Q8N6T7); test: SPR binding to SIRT6
SIRT6, sequence (Q8N6T7 whole entry, species assumed): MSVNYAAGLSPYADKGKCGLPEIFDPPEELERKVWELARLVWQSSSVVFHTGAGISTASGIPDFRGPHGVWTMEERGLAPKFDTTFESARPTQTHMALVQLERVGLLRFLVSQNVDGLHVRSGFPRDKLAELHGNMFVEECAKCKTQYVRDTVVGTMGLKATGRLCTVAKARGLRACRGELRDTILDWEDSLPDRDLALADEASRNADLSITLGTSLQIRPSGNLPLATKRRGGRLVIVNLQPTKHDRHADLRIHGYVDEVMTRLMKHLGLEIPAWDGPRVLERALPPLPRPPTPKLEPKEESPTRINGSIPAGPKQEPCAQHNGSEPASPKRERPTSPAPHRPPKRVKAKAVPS
Experimental: as §1

SIRT5 [1] = biological target: T4, SIRT5 (Homo sapiens, UniProt Q9NXA8); test: SPR binding to SIRT5
T4 sequence (Q9NXA8 37-310): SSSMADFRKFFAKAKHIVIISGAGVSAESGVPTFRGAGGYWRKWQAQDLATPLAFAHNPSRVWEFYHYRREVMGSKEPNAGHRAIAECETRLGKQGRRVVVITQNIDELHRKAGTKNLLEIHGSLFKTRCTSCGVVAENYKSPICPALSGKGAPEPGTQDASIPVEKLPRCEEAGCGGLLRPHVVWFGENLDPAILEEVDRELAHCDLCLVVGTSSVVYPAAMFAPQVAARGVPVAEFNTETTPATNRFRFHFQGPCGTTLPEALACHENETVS
Experimental: as §1

SIRT5 [2] = biological target: T5, SIRT5 (Rattus norvegicus, UniProt Q68FX9); test: CETSA of SIRT5 in H9c2 cells; type: cell-based
T5 construct: endogenous in cells; host or cells: H9c2
T5 sequence (Q68FX9 37-310): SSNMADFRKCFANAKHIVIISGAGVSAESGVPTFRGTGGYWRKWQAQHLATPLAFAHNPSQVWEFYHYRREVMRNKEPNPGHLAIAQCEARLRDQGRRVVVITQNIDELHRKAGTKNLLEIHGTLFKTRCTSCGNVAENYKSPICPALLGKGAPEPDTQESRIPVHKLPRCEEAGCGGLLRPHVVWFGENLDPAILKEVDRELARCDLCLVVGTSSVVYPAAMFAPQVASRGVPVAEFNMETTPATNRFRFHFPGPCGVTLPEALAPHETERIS

Q: For `COC(=O)c1c(N)n(Cc2ccc(F)cc2)c2nc3ccccc3nc12` [SKLB-11A, Methyl 2-amino-1-(4-fluorobenzyl)-1H-pyrrolo[2,3-b]quinoxaline-3-carboxylate], which Kd (SIRT1; SPR) is on record?
A: Its Kd is over 200 µM.

Q: And the “affinity for SIRT1 lower than its affinity for SIRT3” value (SIRT1; SPR Kd ratio)?
A: Its value is “approximately 40 times”.

Q: What about the Kd (wild-type SIRT3) of the same compound?
A: The Kd was 33.1 µM.

Q: What about the “% effect @ 100 µM of SIRT3” value (SIRT3; 100 µM, FDL deacetylation assay, compared to the control group, mean ± SD) of the same compound?
A: The value was “maintained or enhanced the activity”.

Q: And the activity at 100 µM (SIRT3; 0.5 h, 100 µM, FDL deacetylation assay, compared to the control group, mean ± SD, read-out: % effect @ 100 µM of SIRT3)?
A: The activity at 100 µM was 188.1 ± 1.58%.

Q: What about the “SIRT3 activation compared with other SIRT3 activators” value (SIRT3; FDL assay) of the same compound?
A: The value was “better SIRT3 activation”.

Q: What about the EC50 (SIRT3; FDL assay, read-out: EC50, SIRT3 deacetylation activity) of the same compound?
A: The EC50 was 22 ± 1.57 µM.

Q: And the “binding to SIRT6” value (SIRT6)?
A: Its value is “no binding”.

Q: And the “binding to SIRT5” value (SIRT5 [1])?
A: The value was “no binding”.

Q: And the “thermal stability of SIRT5 (CETSA)” value (SIRT5 [2])?
A: The value was “little effect on the thermal stability”.
